Like-named read-outs stand apart in the source and are kept apart here.
Legend:
[1] = biological target: T1, hMeprin β (Homo sapiens, UniProt Q16820); assay: Enzymatic assay, cleavage of internally quenched peptide substrate, hMeprin β; type: biochemical
T1 sequence (Q16820 62-701): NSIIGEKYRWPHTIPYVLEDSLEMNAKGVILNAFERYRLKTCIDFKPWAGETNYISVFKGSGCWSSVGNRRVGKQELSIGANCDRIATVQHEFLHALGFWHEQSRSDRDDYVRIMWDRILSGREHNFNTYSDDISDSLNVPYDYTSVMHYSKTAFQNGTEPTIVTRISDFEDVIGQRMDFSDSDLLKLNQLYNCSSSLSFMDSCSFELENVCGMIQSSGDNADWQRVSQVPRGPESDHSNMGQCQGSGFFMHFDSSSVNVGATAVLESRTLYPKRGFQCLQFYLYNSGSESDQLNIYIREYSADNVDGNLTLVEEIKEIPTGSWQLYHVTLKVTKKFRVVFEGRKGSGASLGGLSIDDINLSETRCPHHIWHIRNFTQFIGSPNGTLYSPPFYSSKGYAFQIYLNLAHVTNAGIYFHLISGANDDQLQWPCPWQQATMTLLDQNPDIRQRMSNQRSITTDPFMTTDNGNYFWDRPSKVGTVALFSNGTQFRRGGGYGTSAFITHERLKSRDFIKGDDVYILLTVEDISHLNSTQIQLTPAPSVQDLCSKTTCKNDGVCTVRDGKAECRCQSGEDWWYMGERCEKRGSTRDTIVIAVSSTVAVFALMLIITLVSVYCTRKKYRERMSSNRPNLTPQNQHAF
Method: (§1) A typical assay of 250 μl total volume measured in black 96 well plates consisted of 100 μl buffer, 50 μl enzyme at a final concentration of 5e-8 M to 5e-9 M, 50 μl substrate (0.15 to 80 μM, in buffer, 0.5% DMSO) and 50 μl inhibitor solution (in buffer, 1% DMSO). In case of 125 μl assay volume (black 96 half area well plates) all volumes were cut in half. Enzymatic activity of ADAMs was measured in 384 well plates with 60 μl total assay volume consisting of 20 μl inhibitor, 20 μl buffer, 10 μl enzyme and 10 μl substrate.
(§2) Ki values were assessed combining 4 substrate concentrations (5-40 μM) with at least 5 inhibitor concentrations. […] Initial velocities were determined and converted into concentration units applying a standard curve obtained after complete conversion of different substrate concentrations under assay conditions. All measurements were performed using a fluorescence plate reader (FLUOstar OPTIMA, BMG Labtech) at 30° C. The kinetic parameters were determined at least in duplicates on separate days. The excitation/emission wavelength was 340/420 nm. The kinetic data was evaluated using GraFit software (version 7.0.3, Erithacus Software).
(§3) The following compounds according to the present invention were synthesized using the above general procedures. IC50 refers to the average IC50 values measured as described above, SD (IC50) refers to the standard deviation of the average IC50 values, Ki refers to the average K; values measured as described above, and SD (Ki) to the standard deviation of the average Ki values.

[2] = biological target: T2, hMeprin α (Homo sapiens, UniProt Q16819); assay: biochemical; type: biochemical
T2 sequence (Q16819 66-746): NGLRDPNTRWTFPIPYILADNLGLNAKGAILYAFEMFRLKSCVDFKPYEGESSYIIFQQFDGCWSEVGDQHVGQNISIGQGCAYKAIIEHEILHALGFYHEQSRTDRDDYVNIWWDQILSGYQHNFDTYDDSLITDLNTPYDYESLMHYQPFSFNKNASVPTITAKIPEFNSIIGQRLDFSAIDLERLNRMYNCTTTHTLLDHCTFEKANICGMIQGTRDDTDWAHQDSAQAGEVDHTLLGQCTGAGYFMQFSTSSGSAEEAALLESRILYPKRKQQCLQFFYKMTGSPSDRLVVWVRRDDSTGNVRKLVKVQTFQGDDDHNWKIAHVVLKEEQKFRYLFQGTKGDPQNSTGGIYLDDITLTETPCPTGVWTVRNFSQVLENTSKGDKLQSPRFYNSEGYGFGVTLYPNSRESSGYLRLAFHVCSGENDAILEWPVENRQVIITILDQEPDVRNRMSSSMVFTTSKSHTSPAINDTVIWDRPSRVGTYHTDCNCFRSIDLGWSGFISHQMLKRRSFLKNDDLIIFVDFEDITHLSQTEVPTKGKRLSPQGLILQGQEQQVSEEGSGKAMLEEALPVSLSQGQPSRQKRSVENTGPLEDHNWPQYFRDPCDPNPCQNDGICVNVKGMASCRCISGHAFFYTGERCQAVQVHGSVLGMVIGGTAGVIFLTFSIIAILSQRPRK
Method: as §1, §2, §3

[3] = average IC50, 10 μM substrate, 30° C., 40 mM HEPES pH 7.4, read-out: Meprin Alpha IC50
[4] = average Ki, 4 substrate concentrations (5-40 μM), 30° C., 40 mM HEPES pH 7.4, read-out: Meprin Alpha Ki
[5] = average IC50, 10 μM substrate, 30° C., 40 mM Tris pH 8.0, read-out: Meprin Beta IC50

| IC50 [1] | Ki [2, 4] | Structure (SMILES) | IC50 [2, 3] | Ki [1] | IC50 [1, 5] | IC50 [2] | Ki [2] |
| --- | --- | --- | --- | --- | --- | --- | --- |
| 75.5 µM | 0.612 µM | O=C(CCN(Cc1ccccc1)Cc1ccccc1)NO [Example 71, 3-(dibenzylamino) propanehydroxamic acid] | 1.68 µM |  |  |  |  |
| 0.839 µM | 1.47 µM | CCOC(=O)c1cccc(CN(CC(=O)NO)Cc2cccc(C(=O)O)c2)c1 [Example 59, 3-[[(3-ethoxycarbonylphenyl)methyl-[2-(hydroxyamino)-2-oxo-ethyl]amino]methyl]benzoic acid] | 4.13 µM | 0.271 µM |  |  |  |
|  |  | O=C(O)c1cccc(CN[C@@H](C(=O)NO)c2ccccc2)c1 [Example 36, 3-[[[(1R)-2-(Hydroxyamino)-2-oxo-1-phenyl-ethyl]amino]methyl]benzoic acid] | 21.7 µM |  | 11.7 µM |  |  |
|  |  | O=C(O)c1cccc(CN[C@H](Cc2ccccc2)C(=O)NO)c1 [Example 35, 3-[[[(1R)-1-Benzyl-2-(hydroxyamino)-2-oxo-ethyl]amino]methyl]benzoic acid] | 2.65 µM | 1.36 µM | 2.91 µM |  |  |
|  |  | O=C(O)c1cccc(CN[C@@H](Cc2ccccc2)C(=O)NO)c1 [Example 30, 3-[[[(1S)-1-Benzyl-2-(hydroxyamino)-2-oxo-ethyl]amino]methyl]benzoic acid] | 10.2 µM |  | 15.5 µM |  |  |
| 0.352 µM | 1.09 µM | COc1ccc(CN(CC(=O)NO)Cc2cccc(C(=O)O)c2)cc1F [Example 10, 3-[[(3-Fluoro-4-methoxy-phenyl)methyl-[2-(hydroxyamino)-2-oxo-ethyl]amino]methyl]benzoic acid] | 3.74 µM | 0.157 µM |  |  |  |
|  | 1.21 µM | COc1ccc(CN(CC(=O)NO)Cc2cccc(C(=O)O)c2)cc1 [Example 6, 3-[[[2-(Hydroxyamino)-2-oxo-ethyl]-[(4-methoxyphenyl)methyl]amino]-methyl]benzoic acid] |  | 0.039 µM |  |  |  |
|  |  | O=C(O)CC[C@@H](NCc1cccc(C(=O)O)c1)C(=O)NO [Example 44, 3-[[[(1R)-3-carboxy-1-(hydroxycarbamoyl)-propyl]amino]methyl]benzoic acid] | 32.1 µM | 0.277 µM | 0.768 µM |  |  |
|  |  | O=C(O)C[C@@H](NCc1cccc(C(=O)O)c1)C(=O)NO [Example 46, 3-[[[(1R)-1-(carboxymethyl)-2-(hydroxyamino)-2-oxo-ethyl]amino]methyl]benzoic acid] | 15.1 µM | 0.254 µM | 0.548 µM |  |  |
|  | 0.052 µM | O=C(CCN(Cc1ccc2c(c1)OCO2)Cc1ccc2c(c1)OCO2)NO [Example 74, 3-[bis(1,3-benzodioxol-5-ylmethyl)amino]-propanehydroxamic acid] | 0.15 µM | 1.15 µM |  |  |  |
|  |  | CC(C)[C@@H](NCc1cccc(C(=O)O)c1)C(=O)NO [Example 34, 3-[[[(1R)-1-(Hydroxycarbamoyl)-2-methyl-propyl]amino]methyl]benzoic acid] | 30 µM |  | 11.8 µM |  |  |
|  |  | O=C(CN(Cc1c(F)ccc(O)c1F)Cc1c(F)ccc(O)c1F)NO [Example 49, 2-[bis[(2,6-difluoro-3-hydroxy-phenyl)methyl]-amino]ethanehydroxamic acid] |  | 1.96 µM | 5.51 µM | 5.6 µM | 0.998 µM |
| 21.7 µM | 0.637 µM | O=C(CN(Cc1cccnc1)Cc1cccnc1)NO [Example 73, 2-[bis(3-pyridylmethyl)amino]ethanehydroxamic acid] | 1.96 µM |  |  |  |  |
| 0.361 µM | 1.99 µM | Cc1ccc(CN(CC(=O)NO)Cc2cccc(C(=O)O)c2)cc1 [Example 18, 3-[[[2-(Hydroxyamino)-2-oxo-ethyl]-(p-tolyl-methyl)amino]methyl]benzoic acid] | 4.67 µM | 0.17 µM |  |  |  |

| Structure (SMILES) | IC50 [1] | Ki [2, 4] | IC50 [2, 3] | Ki [1] | IC50 [1, 5] | IC50 [2] | Ki [2] |
| --- | --- | --- | --- | --- | --- | --- | --- |
| O=C(CN(Cc1ccc(Cl)cc1)Cc1cccc(C(=O)O)c1)NO [Example 20, 3-[[(4-Chlorophenyl)methyl-[2-(hydroxyamino)-2-oxo-ethyl]amino]methyl]benzoic acid] |  | 0.796 µM | 1.79 µM | 0.033 µM | 0.076 µM |  |  |
| O=C(CN(Cc1cc(F)c(O)c(F)c1)Cc1cc(F)c(O)c(F)c1)NO [Example 48, 2-[bis[(3,5-difluoro-4-hydroxy-phenyl)methyl]-amino]ethanehydroxamic acid] |  | 0.263 µM | 1.3 µM | 0.118 µM | 0.272 µM |  |  |
| COc1ccc(CN(CCCC(=O)NO)Cc2cccc(C(=O)O)c2)cc1 [Example 38, 3-[[[4-(hydroxyamino)-4-oxo-butyl]-[(4-methoxyphenyl)methyl]amino]-methyl]benzoic acid] |  | 0.948 µM | 2.61 µM | 0.225 µM | 0.742 µM |  |  |
| O=C(CN(Cc1ccc(F)c(O)c1)Cc1ccc(F)c(O)c1)NO [Example 50, 2-[bis[(4-fluoro-3-hydroxy-phenyl)methyl]-amino]ethanehydroxamic acid] |  | 0.306 µM | 0.986 µM | 0.352 µM | 1.06 µM |  |  |
| COc1ccc(CN(CCC(=O)NO)Cc2cccc(C(=O)O)c2)cc1 [Example 31, 3-[[[3-(Hydroxyamino)-3-oxo-propyl]-[(4-methoxyphenyl)methyl]amino]-methyl]benzoic acid] |  | 0.087 µM | 0.233 µM | 0.165 µM | 0.643 µM |  |  |
